Results on 21 compounds are retold here after BindingDB's records for doi:10.1016/j.bmcl.2010.04.020 (Kalypsys, 2010).

A short description of this assay: Inhibition of ROCK1 in human GTM3 cells by impedance assay.
Broadly, the EC50 is the concentration giving half of the maximal effect. A higher EC50 goes with lower potency in that assay. As to `Cc1c(-c2ccnc(N)n2)sc2ccc(C(N)C(C)C)cc12` (racemic) [(+/-)-4-(5-(1-amino-2-methylpropyl)-3-methylbenzo[b]thiophen-2-yl)pyrimidin-2-amine], the response was half-maximal at 2100 nM (EC50). Next, `Cc1c(-c2ccnc(N)n2)sc2ccc(C(N)CC(C)C)cc12` (racemic) [(+/-)-4-(5-(1-amino-3-methylbutyl)-3-methylbenzo[b]thiophen-2-yl)pyrimidin-2-amine]: 1400 nM; `CCCC(N)c1ccc2sc(-c3ccnc(N)n3)c(C)c2c1` (racemic) [(+/-)-4-(5-(1-aminobutyl)-3-methylbenzo[b]thiophen-2-yl)pyrimidin-2-amine]: 600 nM; `Cc1c(-c2ccnc(N)n2)sc2ccc(C(C)N)cc12` (racemic) [(+/-)-4-(5-(1-aminoethyl)-3-methylbenzo[b]thiophen-2-yl)pyrimidin-2-amine]: 4200 nM. Next, `CCC(N)c1ccc2sc(-c3ccnc(N)n3)c(C)c2c1` (racemic) [(+/-)-4-(5-(1-aminopropyl)-3-methylbenzo[b]thiophen-2-yl)pyrimidin-2-amine]: 1700 nM.

Compound `COc1cccc(C(N)c2ccc3sc(-c4ccnc(N)n4)c(C)c3c2)c1` (racemic) [(+/-)-4-(5-(amino(3-methoxyphenyl)methyl)-3-methylbenzo[b]thiophen-2-yl)pyrimidin-2-amine] displayed an EC50 of 3600 nM.

`Cc1c(-c2ccnc(N)n2)sc2ccc(C(N)c3ccccc3)cc12` (racemic) [(+/-)-4-(5-(amino(phenyl)methyl)-3-methylbenzo[b]thiophen-2-yl)pyrimidin-2-amine] returned an EC50 of 1400 nM. Next, `Cc1c(-c2ccnc(N)n2)sc2ccc(C(N)c3cccc(Cl)c3)cc12` (racemic) [(+/-)--4-(5-(amino(3-chlorophenyl)methyl)-3-methylbenzo[b]thiophen-2-yl)pyrimidin-2-amine]: 2700 nM; `COc1ccc(C(N)c2ccc3sc(-c4ccnc(N)n4)c(C)c3c2)cc1` (racemic) [(+/-)--4-(5-(amino(4-methoxyphenyl)methyl)-3-methylbenzo[b]thiophen-2-yl)pyrimidin-2-amine]: 2600 nM; `Cc1cccc(C(N)c2ccc3sc(-c4ccnc(N)n4)c(C)c3c2)c1` (racemic) [(+/-)--4-(5-(amino(m-tolyl)methyl)-3-methylbenzo[b]thiophen-2-yl)pyrimidin-2-amine]: 1900 nM.

`Cc1c(-c2ccnc(N)n2)sc2ccc(Cc3cccc(C(=O)O)c3)cc12` [3-((2-(2-aminopyrimidin-4-yl)-3-methylbenzo[b]thiophen-5-yl)methyl)benzoic acid] gave a concentration for a half-maximal effect (EC50) of more than 10000 nM. In the case of `Cc1c(-c2ccnc(N)n2)sc2ccc(Cc3cccc(O)c3)cc12` [3-((2-(2-aminopyrimidin-4-yl)-3-methylbenzo[b]thiophen-5-yl)methyl)phenol] it was 2900 nM.

`Cc1c(-c2ccnc(N)n2)sc2ccc(Cc3cccc(C(F)(F)F)c3)cc12` [4-(3-methyl-5-(3-(trifluoromethyl)benzyl)benzo[b]thiophen-2-yl)pyrimidin-2-amine] displayed a concentration giving a half-maximal response (EC50) of more than 10000 nM. In the case of `Cc1c(-c2ccnc(N)n2)sc2ccc(-c3ccccc3)cc12` [4-(3-methyl-5-phenylbenzo[b]thiophen-2-yl)pyrimidin-2-amine] it was more than 10000 nM; in that of `Cc1c(-c2ccnc(N)n2)sc2ccccc12` [4-(3-methylbenzo[b]thiophen-2-yl)pyrimidin-2-amine], more than 10000 nM; in that of `COc1ccccc1Cc1ccc2sc(-c3ccnc(N)n3)c(C)c2c1` [4-(5-(2-methoxybenzyl)-3-methylbenzo[b]thiophen-2-yl)pyrimidin-2-amine], more than 10000 nM.

Compound `COc1cccc(Cc2ccc3sc(-c4ccnc(N)n4)c(C)c3c2)c1` [4-(5-(3-methoxybenzyl)-3-methylbenzo[b]thiophen-2-yl)pyrimidin-2-amine] gave an EC50 of more than 10000 nM. Next, `COc1ccc(Cc2ccc3sc(-c4ccnc(N)n4)c(C)c3c2)cc1` [4-(5-(4-methoxybenzyl)-3-methylbenzo[b]thiophen-2-yl)pyrimidin-2-amine]: more than 10000 nM.

Compound `Cc1c(-c2ccnc(N)n2)sc2ccc(CN)cc12` [4-(5-(aminomethyl)-3-methylbenzo[b]thiophen-2-yl)pyrimidin-2-amine] came in with a concentration giving a half-maximal response (EC50) of more than 10000 nM.

Turning to `Cc1c(-c2ccnc(N)n2)sc2ccc(Cc3ccccc3)cc12` [4-(5-benzyl-3-methylbenzo[b]thiophen-2-yl)pyrimidin-2-amine], the EC50 is more than 10000 nM. Next, `COC(=O)c1cccc(Cc2ccc3sc(-c4ccnc(N)n4)c(C)c3c2)c1` [methyl 3-((2-(2-aminopyrimidin-4-yl)-3-methylbenzo[b]thiophen-5-yl)methyl)benzoate]: more than 10000 nM.
